Consider two compounds from patent publication US20180185302A1, “METHODS FOR DOWNREGULATING APOBEC3B” (Regents of the University of Minnesota, priority 2015, published 2018).

Holding throughout (format): cell-based, human
One data set has as its system APOBEC3B promoter region. The experiment in a line: chromatin immunoprecipitation (ChIP) at the APOBEC3B promoter after PMA. The note with it: MCF10A cells, PMA 25 ng/mL two hours, ChIP-qPCR. How it is done:
We next performed a series of chromatin immunoprecipitation (ChIP) experiments to determine whether the canonical or noncanonical NFκB pathway is responsible for upregulating APOBEC3B. Primer sets were designed for each of the predicted NFκB binding sites near the APOBEC3B transcriptional start site, as well as a control set in the promoter region of NFKIB (FIG. 3E). ChIP was performed for RELA, RELB, RNA POL II (positive control), and isotype matched IgG (negative control) RELA, RELB, and RNA POL II were all bound to the NFKIB promoter following PMA treatment (FIG. 3F and FIG. 3G). In addition, we found RNA POL II strongly bound to the APOBEC3B gene near the transcriptional start site (FIG. 3F and FIG. 3G). We also found RELB bound both near the transcriptional start site and at sites 4 and 5, which are located in intron 2 and too close together to be distinguished by this procedure. Binding also may occur at lower levels at site 3 in intron 1, but the IgG signal was too high to distinguish background from actual binding. These ChIP data strongly implicate the noncanonical NFκB pathway, specifically RELB (and not RELA), in directly inducing APOBEC3B transcription in response to PMA activation of PKC.
MCF10A cells were treated with either DMSO or 25 ng/mL PMA for two hours. […]

In data set [1] the test system is APOBEC3B. As to the kind of experiment: PMA induction of APOBEC3B mRNA in MCF10A cells (RT-qPCR). The protocol:
(§1) A panel of immortalized normal human epithelial cells lines and breast cancer cell lines was treated with PMA or equal amounts of DMSO as a negative control, and previously validated reverse transcription quantitative PCR (RT-qPCR) assays were used to measure mRNA levels of all eleven human APOBEC family members. APOBEC3B mRNA was induced specifically by PMA treatment of several lines including the immortalized normal breast epithelial cell line MCF10A (FIG. 1A and FIG. 6). Under standard cell culture conditions, MCF10A expresses low levels of APOBEC3B and APOBEC3F, even lower levels of APOBEC3G and APOBEC3H, high levels of APOBEC3C, and undetectable levels of all other APOBEC family members.
(§2) APOBEC3B was induced with as little as 1 ng/mL PMA, and its induction was dose responsive and near maximal at 25 ng/mL PMA (FIG. 1B, histogram). APOBEC3B mRNA levels correlated with a rise in steady-state protein levels as measured by immunoblotting with a rabbit anti-APOBEC3B monoclonal antibody (described in U.S. Provisional Patent Application No. 62/186,109. filed Jun. 29, 2015) and with enzymatic activity as measured by a gel-based single-stranded DNA cytosine deamination assay (FIG. 1B). […] APOBEC3B protein and activity levels lagged shortly behind mRNA levels and persisted through the duration of the time course (FIG. 1C, immunoblot and polyacrylamide gel). APOBEC3B upregulation may be a direct result of signal transduction as the kinetics of upregulation were not affected by simultaneously treating cells with the protein translation inhibitor cyclohexamide (FIG. 1D).
(§3) For induction experiments, 2.5×10^5 cells were plated in a 6-well plate 1 day prior to drug treatment. PMA was then added to the media and incubated at 37° C. with 5% CO2 for six hours unless otherwise indicated. Cells were harvested, RNA was extracted, and RT-qPCR was performed as previously reported (Refsland et al. 2010, Nucleic Acids Res 38:4274-4284). For experiments utilizing inhibitors, cells were pretreated with inhibitors 30 minutes prior to PMA induction (25 ng/mL). PMA (Thermo Fisher Scientific, Inc., Waltham, Mass.), cyclohexamide (Acros Organics, Thermo Fisher Scientific, Inc., Waltham, Mass.), Gö6983 (Cayman Chemical co., Ann Arbor, Mich.), LY294002 (EMD Chemicals, Merck KGaA, Darmstadt, Germany), U0126 (EMD Chemicals, Merck KGaA, Darmstadt, Germany), AEB071 (Medchemexpress, Monmouth Junction, N.J.), Gö6976 (Enzo Life Sciences, Inc., Farmingdale, N.Y.), BAY 11-7082 (R&D Systems, INc., Minneapolis, Minn.), and MG132 (Thermo Fisher Scientific, Inc., Waltham, Mass.) were stored as recommended. NIKi/Compound 31 was synthesized as described (Li et al., 2013, Bioorganic & Medicinal Chemistry Letters 23:1238-1244).
Background: Real-time PCR tracks product formation cycle by cycle.

Data set [2] concerns APOBEC3B. As to the kind of experiment: single-stranded DNA cytosine deaminase activity of whole cell extracts after PMA. To be noted: MCF10A cell extracts. How it is done:
as §2
Deaminase activity assays were performed as previously reported (Vieira et al., 2014, mBio 5(6):e02234-14). In short, 4 pmol of a fluorescently labeled oligo with a single target cytosine (5 -[…]-fluorescein, SEQ ID NO:2) was treated with cell extract containing 0.025 U/rxn UDG (New England BioLabs, Inc., Ipswich, Mass.), UDG buffer, and 1.75 U/rxn RNase A (Qiagen, Hilden, Germany) for two hours. […] Gels were scanned using a FujiFilm Image Reader FLA-7000.

Data set [3] relates to APOBEC3B. As to the kind of experiment: APOBEC3B protein levels by immunoblotting after PMA. To be noted: MCF10A cells. How it is done: as §2
(§4) The development and validation of the rabbit monoclonal antibody (mAb) against APOBEC3B is as described elsewhere (U.S. Provisional Patent Application No. 62/186,109, filed Jun. 29, 2015). The mAb used (referred to as 5210-87-13) effectively binds endogenous APOBEC3B in a variety of assays. The anti-tubulin antibody was obtained from Covance Inc., Princeton, N.J.
Background: A western blot detects proteins with antibodies after separation by electrophoresis.

A further data set relates to APOBEC family members. The experiment in a line: mRNA levels of other APOBEC family members after PMA (RT-qPCR). The note with it: MCF10A cells, six hours. The protocol: as §1
For induction experiments, 2.5×10^5 cells were plated in a 6-well plate 1 day prior to drug treatment. PMA was then added to the media and incubated at 37° C. with 5% CO2 for six hours unless otherwise indicated. Cells were harvested, RNA was extracted, and RT-qPCR was performed as previously reported (Refsland et al. 2010, Nucleic Acids Res 38:4274-4284). For experiments utilizing inhibitors, cells were pretreated with inhibitors 30 minutes prior to PMA induction (25 ng/mL). […]

Data set [4] relates to RELA, NKB1, RELB and NFKB2. As to the kind of experiment: RNA-seq of NFκB subunit mRNA in MCF10A cells treated with PMA. To be noted: PMA vs vehicle. How it is done: Canonical signaling is known to require IKKβ, whereas non-canonical NFκB signaling is strictly dependent on IKKα-catalyzed phosphorylation of p100. To distinguish between these pathways, MCF10A cells were pretreated with a titration of TPCA-1 concentrations spanning the IC50 values of both proteins, and then PMA was used to induce APOBEC3B upregulation. […] As an additional control, TNFα, which is regulated by the canonical pathway, was analyzed.
(§5) Two sets of MCF10A cells in duplicate were treated every eight hours with media supplemented with PMA or DMSO for 48 hours. At 48 hours, RNA was extracted using an RNeasy Mini Kit (Qiagen, Hilden, Germany). Total RNA was submitted to the University of Minnesota Genomics Center for sequencing on the Illumina HiSeq 2000 platform. Raw reads were analyzed using both DESeq2 (Love et al., 2014, Genome Biol. 15:550) and the Tuxedo suite (Trapnell et al., 2012, Nat Protoc.7:562-578) to identify changes in mRNA expression in PMA treated versus untreated cells.

For another data set, the system named is PKCα (PRKCA). As to the kind of experiment: RNA-seq of PKC isoform mRNA in MCF10A cells treated with PMA. To be noted: PMA vs vehicle.
Source text: PKCα mRNA levels were unchanged by PMA treatment, consistent with a mechanism by which PMA signals through pre-existing PKCα to ultimately stimulate APOBEC3B transcription (FIG. 2G). PKCα expression was depleted using three independent shRNA-encoding lentiviral constructs. […] Immunoblots confirmed PKCα knockdown and proportional reductions in APOBEC3B (FIG. 21). Altogether, the pharmacologic and genetic approaches provide a strong case for PKCα as the predominant PKC isoform driving PMA-mediated upregulation of APOBEC3B.
as §5

Data set [5] concerns APOBEC3B. As to the kind of experiment: endogenous APOBEC3B protein in cancer cell lines treated with AEB071 (immunoblot). The note with it: 10 μM, 48 hours. The protocol:
(§6) Each line was treated for 48 hours with 10 μM AEB071, and then APOBEC3B mRNA and protein levels were quantified by RT-qPCR and immunoblotting. […] This is important since higher concentrations of AEB071 are known to cause cell cycle perturbations and apoptosis in certain cell types.
as §4

In another data set the test system is cancer cell lines. The experiment in a line: cell cycle and cell viability of cancer cell lines treated with AEB071. The note with it: 10 μM, 48 hours, data not shown.
In data set [6] the test system is APOBEC3B. As to the kind of experiment: endogenous APOBEC3B mRNA in cancer cell lines treated with AEB071 (RT-qPCR). The note with it: 10 μM, 48 hours. The protocol:
FIG. 4. The PKC-NFκB pathway drives endogenous APOBEC3B expression in cancer cells. (A) APOBEC3B mRNA levels in representative breast, ovarian, and head/neck cancer cell lines. mRNA expression is reported as the mean of three independent RT-qPCR reactions normalized to TBP (error bars report SD from triplicate assays). (B) Representative PKC inhibitor treated cancer cell line experiment. Each line was treated with AEB071 (10 μM) or vehicle control for 48 hours prior to analysis. The histogram reports APOBEC3B mRNA levels normalized to the vehicle treated control for each line.
Four breast cancer cell lines, four ovarian cancer cell lines, four bladder cancer cell lines, and four head/neck cancer cell lines were analyzed to determine whether the constitutively high levels of endogenous APOBEC3B observed in many human cancer cell lines occurs through the PKC pathway. The selected cell lines expressed a 10-fold range of endogenous APOBEC3B mRNA levels (FIG. 4A).
as §6

Data set [7] concerns APOBEC3B. As to the kind of experiment: inhibitor pretreatment before PMA-induced APOBEC3B upregulation in MCF10A cells (RT-qPCR). The protocol: PMA is a well-known agonist of PKC, but it also affects other cellular processes. To determine whether APOBEC3B induction by PMA occurs through PKC signal transduction or an alternative mechanism, we leveraged a panel of existing PKC inhibitors that each vary with respect to class selectivity. MCF10A cells were pre-treated for 30 minutes with varying concentrations of the pan-PKC inhibitor Gö6983 (Gschwendt et al., FEBS Lett. 392:77-80, 1996) and then treated for six hours with PMA (25 ng/mL). […] As additional controls, MCF10A cells were pretreated in parallel with the phosphoinositol 3 kinase (PI3K) inhibitor, LY294002, and the mitogen-activated protein kinase kinase (MEK) inhibitor, U0126, prior to PMA induction (FIGS. 2B and 2C).
as §3

Entries after “also recorded” stand apart in the source; their conditions may differ.

Regarding `CCCCCCCCCCCCCC(=O)O[C@@H]1[C@@H](C)[C@@]2(O)[C@@H](C=C(CO)C[C@]3(O)C(=O)C(C)=C[C@@H]23)[C@@H]2C(C)(C)[C@]12OC(C)=O` [PMA], in the data set on APOBEC3B promoter region, the “recruitment of RELB and p105/p52 to the APOBEC3B promoter region” value was “specifically and robustly recruited”. Besides, in the data set on APOBEC3B [1] (PMA 25 ng/ml), the “time after PMA treatment at which maximal APOBEC3B mRNA levels were observed” value is recorded as “by three hours post-treatment” and the “time after PMA treatment at which significant APOBEC3B mRNA induction was detected” value was 30 min. In the data set with APOBEC3B [1] (six hours), the “PMA concentration at which APOBEC3B induction was near maximal” value was 25 ng/mL and the “lowest PMA concentration that induced APOBEC3B” value is on record as 1 ng/mL. In addition, the “APOBEC3B activity levels (DNA cytosine deaminase)” value in the data set with APOBEC3B [2] is recorded as “dose-responsive increases”. Besides, the APOBEC3B protein levels entry with APOBEC3B [3] is recorded as “dose-responsive increases”. The “changes in the expression levels of other APOBEC family members” value in the data set on APOBEC family members is on record as “no detectable changes”. In addition, the “mRNA levels of NFκB components RELA, NKB1, RELB, NFKB2” value in data set [4] is “unaffected”. Also, the “PKCα mRNA levels” value in the data set on PKCα (PRKCA) is “unchanged”.
As for `CN1CCN(c2nc(C3=C(c4c[nH]c5ccccc45)C(=O)NC3=O)c3ccccc3n2)CC1` [AEB071, sotrastaurin], the “changes of APOBEC3B protein levels” value in the data set on APOBEC3B [5] is reported as “largely mirrored the mRNA results”. Further, the “effects on the cell cycle or cell viability” value in the data set on cancer cell lines is “No effects on the cell cycle or cell viability”. Besides, in the data set with APOBEC3B [6] (16 breast, ovarian, bladder, head/neck cancer cell lines), the “cell lines in which APOBEC3B mRNA levels were reduced by more than half” value is recorded as 7/16. Also, the “APOBEC3B mRNA levels” value in the data set on APOBEC3B [6] (HCC1806 breast cancer cell line), with APOBEC3B [6] (JSQ3 head/neck line), with APOBEC3B [6] (MDA-MB-453 breast cancer cell line), in the data set on APOBEC3B [6] (MDA-MB-468 breast cancer cell line), in the data set on APOBEC3B [6] (OVCAR5 ovarian cancer cell line) and with APOBEC3B [6] (SQ-20B head/neck line) was “reduced by more than half” in each case. For the same compound, in the data set on APOBEC3B [6] (TR146 head/neck line), the “APOBEC3B mRNA levels” value is reported as “reduced by more than half”. The “potency relative to Gö6983, BIM-1, or Gö6983 in suppressing PMA-induced APOBEC3B” value with APOBEC3B [7] is given as “approximately 10 fold”. Besides, the “suppression of PMA-induced APOBEC3B mRNA induction” value in the data set with APOBEC3B [7] (30-minute pretreatment with inhibitor, then PMA 25 ng/mL six hours) is “inhibited; also recorded: clear dose dependent response”. Moreover, the “concentration that caused complete suppression of APOBEC3B expression” value in the data set on APOBEC3B [7] (pretreatment, PMA induced) is listed as 500 nM.
